Assay results taken from PubChem BioAssay (NCI).
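96-well plates; 48 h exposure; 5 concentrations. Endpoints by linear interpolation between flanking doses. Not reached: highest tested concentration assigned. TGI denotes the concentration required for complete inhibition of growth.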

How the values were obtained:
Test in all cases: DTP human tumour cell line panel, 48 h
[1] = test system: K-562 leukemia
[2] = test system: TK-10 renal
[3] = test system: MALME-3M melanoma
[4] = test system: MCF7 breast
[5] = test system: M14 melanoma
[6] = test system: RXF 393 renal
[7] = test system: U251 CNS
[8] = test system: NCI-H23 lung
[9] = test system: PC-3 prostate
[10] = test system: HCT-15 colon
[11] = test system: HCC-2998 colon
[12] = test system: RPMI-8226 leukemia
[13] = test system: SK-MEL-5 melanoma
[14] = test system: 786-0 renal
[15] = test system: OVCAR-3 ovarian
[16] = test system: SNB-75 CNS
[17] = test system: SK-MEL-2 melanoma
[18] = test system: HOP-92 NSCLC
[19] = test system: NCI-H522 lung
[20] = test system: MOLT-4 leukemia
[21] = test system: SN12C renal
[22] = test system: SW-620 colon
[23] = test system: SF-539 CNS
[24] = test system: HCT-116 colon
[25] = test system: MDA-MB-435
[26] = test system: UACC-257 melanoma
[27] = test system: NCI/ADR-RES ovarian
[28] = test system: HS 578T breast
[29] = test system: KM12 colon
[30] = test system: CCRF-CEM leukemia
[31] = test system: SNB-19 CNS
[32] = test system: ACHN renal
[33] = test system: MDA-N
[34] = test system: NCI-H460 lung
[35] = test system: SF-295 CNS
[36] = test system: DU-145 prostate
[37] = test system: BT-549 breast
[38] = test system: LOX IMVI melanoma
[39] = test system: SK-MEL-28 melanoma
[40] = test system: SF-268 CNS
[41] = test system: UO-31 renal
[42] = test system: COLO 205 colon
[43] = test system: HOP-62 NSCLC
[44] = test system: MDA-MB-231 breast
[45] = test system: CAKI-1 renal
[46] = test system: A498 renal
[47] = test system: NCI-H226 lung
[48] = test system: HL-60(TB) leukemia
[49] = test system: IGROV1 ovarian
[50] = test system: OVCAR-5 ovarian
[51] = test system: HT29 colon
[52] = test system: A549 NSCLC
[53] = test system: EKVX NSCLC
[54] = test system: OVCAR-8 ovarian
[55] = test system: SR leukemia
[56] = test system: UACC-62 melanoma
[57] = test system: OVCAR-4 ovarian
[58] = test system: SK-OV-3 ovarian
[59] = test system: T-47D breast

For Cc1ccc(NC(=O)CC(=O)N2N=C(c3ccccc3)C(N=Nc3ccc(S(=O)(=O)CCOS(=O)(=O)O)cc3)C2=O)cc1 (stereo not drawn), which TGI [1] is on record?
Its TGI is greater than 100 µM.

And the TGI [2]?
Its TGI is greater than 100 µM.

And the TGI [3]?
Its TGI is greater than 100 µM.

And the TGI [4]?
Its TGI is greater than 100 µM.

And the TGI [5]?
The TGI was greater than 100 µM.

What about the TGI [6] of the same compound?
The TGI was greater than 100 µM.

What about the TGI [7] of the same compound?
Its TGI is greater than 100 µM.

What about the TGI [8] of the same compound?
Its TGI is greater than 100 µM.

What about the TGI [9] of the same compound?
The TGI was greater than 100 µM.

What about the TGI [10] of the same compound?
Its TGI is greater than 100 µM.

And the TGI [11]?
The TGI was greater than 100 µM.

And the TGI [12]?
Its TGI is greater than 100 µM.

What about the TGI [13] of the same compound?
The TGI was greater than 100 µM.

What about the TGI [14] of the same compound?
The TGI was greater than 100 µM.

And the TGI [15]?
The TGI was greater than 100 µM.

What about the TGI [16] of the same compound?
The TGI was greater than 100 µM.

And the TGI [17]?
The TGI was greater than 100 µM.

What about the TGI [18] of the same compound?
The TGI was greater than 100 µM.

What about the TGI [19] of the same compound?
The TGI was greater than 100 µM.

And the TGI [20]?
Its TGI is greater than 100 µM.

What about the TGI [21] of the same compound?
Its TGI is greater than 100 µM.

What about the TGI [22] of the same compound?
The TGI was greater than 100 µM.

And the TGI [23]?
The TGI was greater than 100 µM.

And the TGI [24]?
The TGI was greater than 100 µM.

What about the TGI [25] of the same compound?
Its TGI is greater than 100 µM.

And the TGI [26]?
Its TGI is greater than 100 µM.

And the TGI [27]?
The TGI was greater than 100 µM.

What about the TGI [28] of the same compound?
Its TGI is greater than 100 µM.

And the TGI [29]?
Its TGI is greater than 100 µM.

What about the TGI [30] of the same compound?
Its TGI is greater than 100 µM.

And the TGI [31]?
Its TGI is greater than 100 µM.

And the TGI [32]?
The TGI was greater than 100 µM.

What about the TGI [33] of the same compound?
The TGI was greater than 100 µM.

And the TGI [34]?
The TGI was greater than 100 µM.

What about the TGI [35] of the same compound?
Its TGI is greater than 100 µM.

What about the TGI [36] of the same compound?
The TGI was greater than 100 µM.

What about the TGI [37] of the same compound?
The TGI was greater than 100 µM.

What about the TGI [38] of the same compound?
The TGI was greater than 100 µM.

What about the TGI [39] of the same compound?
Its TGI is greater than 100 µM.

What about the TGI [40] of the same compound?
The TGI was greater than 100 µM.

What about the TGI [41] of the same compound?
The TGI was greater than 100 µM.

And the TGI [42]?
The TGI was greater than 100 µM.

And the TGI [43]?
Its TGI is greater than 100 µM.

What about the TGI [44] of the same compound?
The TGI was greater than 100 µM.

What about the TGI [45] of the same compound?
Its TGI is greater than 100 µM.

And the TGI [46]?
Its TGI is greater than 100 µM.

And the TGI [47]?
Its TGI is greater than 100 µM.

What about the TGI [48] of the same compound?
Its TGI is greater than 100 µM.

What about the TGI [49] of the same compound?
The TGI was greater than 100 µM.

And the TGI [50]?
The TGI was greater than 100 µM.

What about the TGI [51] of the same compound?
The TGI was greater than 100 µM.

What about the TGI [52] of the same compound?
Its TGI is greater than 100 µM.

And the TGI [53]?
The TGI was greater than 100 µM.

And the TGI [54]?
Its TGI is greater than 100 µM.

And the TGI [55]?
The TGI was greater than 100 µM.

Which results are given for c1ccc(-c2nc3ccccc3n3nnnc23)cc1?
TGI [1]: > 100 µM; TGI [56]: > 100 µM; TGI [2]: > 100 µM; TGI [3]: > 100 µM; TGI [4]: > 100 µM; TGI [5]: > 100 µM; TGI [6]: > 100 µM; TGI [7]: > 100 µM; TGI [8]: > 100 µM; TGI [9]: > 100 µM; TGI [10]: > 100 µM; TGI [57]: > 100 µM; TGI [11]: > 100 µM; TGI [12]: > 100 µM; TGI [13]: > 100 µM; TGI [14]: > 100 µM; TGI [15]: > 100 µM; TGI [17]: > 100 µM; TGI [18]: > 100 µM; TGI [20]: > 100 µM; TGI [58]: > 100 µM; TGI [21]: > 100 µM; TGI [22]: > 100 µM; TGI [23]: > 100 µM; TGI [24]: > 100 µM; TGI [25]: > 100 µM; TGI [26]: > 100 µM; TGI [27]: > 100 µM; TGI [29]: > 100 µM; TGI [30]: > 100 µM; TGI [31]: > 100 µM; TGI [32]: > 100 µM; TGI [33]: > 100 µM; TGI [34]: > 100 µM; TGI [36]: > 100 µM; TGI [59]: 97.3 µM; TGI [37]: > 100 µM; TGI [38]: > 100 µM; TGI [39]: > 100 µM; TGI [40]: > 100 µM; TGI [41]: 1.57 µM; TGI [42]: > 100 µM; TGI [43]: > 100 µM; TGI [44]: > 100 µM; TGI [46]: > 100 µM; TGI [47]: > 100 µM; TGI [48]: > 100 µM; TGI [49]: > 100 µM; TGI [50]: > 100 µM; TGI [51]: > 100 µM; TGI [52]: > 100 µM; TGI [53]: > 100 µM; TGI [55]: > 100 µM
